Here are results for one molecule from patent US7863242B2, “Compositions for down-regulation of CCR5 expression and methods of use thereof” (priority 2003, dated 2011).

Broadly, the inhibition is the change of the read-out against control, counted positive when it falls.

Series [1] concerns CCR5. In words: CCR5 cell-surface expression on maturing monocytes (CD14-gated flow cytometry). It counts as cell-based, human. The conditions noted are these: monocytes cultured 5 days, three donors. In general terms: In flow cytometry, cells or beads pass a laser one at a time.
Series [2] concerns CCR5. Kind of series: CCR5 surface expression on CD4 and CD8 T lymphocytes in IL-2 cultured PBMCs (flow cytometry, mAb 182). It counts as cell-based, human. Conditions: days 7 and 10, five donors tested. As for the experimental part: CCR5 surface expression was measured on PBMCs cultured in the presence of IL-2 for 7-10 days.
A further series concerns MIP-1α. In words: Extracellular MIP-1α level in PBMC culture supernatants (ELISA). It counts as cell-based, human. The conditions noted are these: day 10, four donors.
The subject of another series is PBMCs. Conditions: PBMCs with IL-2, day 7.
For the next series, the system named is MIP-1β. In words: Extracellular MIP-1β level in PBMC culture supernatants (ELISA). The conditions noted are these: for increase of MIP-1β protein versus untreated control: day 10. It counts as cell-based, human. As for the experimental part:
Levels of the β-chemokines MIP-1α, MIP-1β, and RANTES were measured in culture supernatants by using ELISA kits (R & D Systems).
RAPA Increases Extracellular Levels of MIP-1α and MIP-1β in PBMC Cultures: Because lymphocytes and monocytes cultured in the presence of RAPA presented reduced CCR5 RNA and protein levels, the levels of the CCR5 ligands MIP-1α, MIP-1β, and RANTES were measured in supernatants of RAPA-treated PBMC cultures. […] On day 10, percentage of cells expressing CCR5 and supernatant chemokine content were determined for each donor. […] Among the different donors, RAPA-treated cultures contained 6-39-fold higher levels of MIP-1α than untreated cultures. Similarly, MIP-1β levels were increased 17-47-fold in the presence of RAPA as compared with untreated controls. […] Chemokine results obtained in two of the donors, showing disparity of RANTES levels in the presence of RAPA, are depicted in FIG. 3A.
The above results were confirmed by evaluating the effect of RAPA on the secretion of MIP-1β, a chemokine that uses CCR5 as its only receptor, in cultures of PBMCs derived from a donor homozygous for the Δ32 mutation in the CCR5 gene. In this experimental setting, in which MIP-1β cannot be endocytosed by CCR5, the effect of RAPA on MIP-1β protein levels provided information regarding the mechanism by which RAPA increases β-chemokine levels. To this end, stimulated PBMCs from two normal donors and from a CCR5-null donor were cultured in the presence of RAPA as in previous experiments. MIP-1β levels in supernatants were evaluated on day 10. Representative results obtained in one of the normal donors are shown in FIG. 3B next to the results obtained on the CCR5-null donor.
Background: In an ELISA, binding on a coated surface is turned into a signal by an enzyme label.

The test system of another series is MDMs. Kind of series: Cell viability of infected MDMs (MTT assay). It counts as cell-based, human. The conditions noted are these: end of experiment (day 14 after infection). As for the experimental part: (§1) To this end, donor monocytes were cultured for 5 days in the presence of RAPA. On day 5, cells were infected with HIV-1 ADA. Infected cells were cultured in the presence of RAPA for an additional 14 days. Virus production was measured on the culture supernatants on days 7, 10, and 14 after infection. Cell viability was measured by the MTT assay at the end of the experiment.
(Tetrazolium assays rely on reduction of a dye to a coloured formazan, in cell work by metabolically active cells.)

A short description of series [3]: Tolerability of Rapamycin in HIV infected volunteers. It counts as in vivo, human. Conditions: 2 mg/day after 6 mg loading dose, 28 days. The procedure:
To assess the expression activity of CCR5 and its effects on levels of CCR5 receptors in vivo, an open-labeled, non-randomized proof of concept trial was performed in which 8 volunteers with established HIV infection were given 2 mg/day of Rapamycin, following a 6 mg loading dose, for 28 days. Peripheral blood for determining expression levels of CCR5 was obtained at the screening visit, days 7, 14 and 28 of the Rapamycin dosing, and at day 42 (which was two weeks following the last dose of Rapamycin).

Another series has as its system HIV-1 SF 162. In words: HIV-1 SF 162 replication in monocyte-derived macrophages. It counts as cell-based. Conditions: Human immunodeficiency virus 1, Macrophage; RAPA at 0.01 nM, additional experiment; read-out: inhibition of HIV-1 SF 162 in MDMs. As for the experimental part:
(§2) For infection of PBMCs, fresh donor PBMCs were cultured for 7 days in medium containing IL-2. On day 7, cells were exposed to the virus for 3 h. Nonadsorbed virus was removed by washing cells with PBS three times. Infected cells were cultured in IL-2 medium. Infection of MDMs was carried out as described before (Perno, 1993). Unless otherwise indicated, PBMCs were infected by using an moi of 0.001, and MDM were infected by using an moi of 0.002. Virus growth was monitored in culture supernatants by measuring p24 antigen levels by ELISA (NEN) or by measuring viral RT activity in an RT assay (Willey, 1988).
as §1

Another series deals with HIV-1 ADA. In words: HIV-1 ADA replication in monocyte-derived macrophages (RT assay). It counts as cell-based. The procedure:
as §2, §1
In the above-described experiment, monocytes had been pretreated with RAPA during the 5-day differentiation period. To control for the possible interference of RAPA with the process of monocyte differentiation, a new infection experiment in which RAPA was not present during the 5-day monocyte differentiation period was designed. To this end, fresh monocytes were cultured for 5 days in the absence of RAPA. On day 5, cells were infected with HIV-1 ADA and then exposed to RAPA.

For `CO[C@H]1C[C@@H]2CC[C@@H](C)[C@@](O)(O2)C(=O)C(=O)N2CCCC[C@H]2C(=O)O[C@H]([C@H](C)C[C@@H]2CC[C@@H](O)[C@H](OC)C2)CC(=O)[C@H](C)/C=C(\C)[C@@H](O)[C@@H](OC)C(=O)[C@H](C)C[C@H](C)/C=C/C=C/C=C/1C` [RAPA, rapamycin], the “concentrations giving consistent down-regulation of CCR5 surface expression on monocytes” value with CCR5 [1] was at least 10 pM. The “concentrations that down-regulated CCR5 surface expression on CD4 lymphocytes” value with CCR5 [2] is at least 1 nM. The “MIP-1α level versus untreated cultures” value in the series with MIP-1α is listed as 6-39 fold. Besides, the “drug concentration at which drug toxicity was observed” value with PBMCs is “above 10^3 nM”. The results for the “increase of MIP-1β protein versus untreated control” value in the series on MIP-1β (CCR5-null donor (Δ32 homozygous)) and in the series on MIP-1β (normal donor) were 1.2 fold and 9.3 fold, respectively. In addition, the “MIP-1β level versus untreated controls” value in the series with MIP-1β (day 10, four donors) is listed as 17-47 fold. The “concentrations at which cell viability was reduced” value with MDMs is recorded as at least 10 nM. Moreover, the tolerability result in series [3] was “well-tolerated”. The inhibition at 10 pM with HIV-1 SF 162 was 45%; in the series on HIV-1 ADA (Human immunodeficiency virus 1, Macrophage, RAPA at 0.01 nM, additional experiment, read-out: inhibition of HIV-1 ADA in MDMs), 64%. For the same molecule, the “inhibition of virus replication in already differentiated macrophages” value in the series on HIV-1 ADA (1 nM RAPA added after infection on day 5, day 14 after infection, one value per donor) is recorded as about 80%. Moreover, the inhibition at 0.001 µM in the series with HIV-1 ADA (Human immunodeficiency virus 1, Macrophage, 1 nM RAPA added after infection on day 5, day 14 after infection, one value per donor, read-out: inhibition of virus replication in already differentiated macrophages) was about 60%. Besides, the “inhibition of virus production in MDMs” value in the series on HIV-1 ADA (RAPA 0.1-100 nM, present during 5-day differentiation, day 14 after infection) is on record as 70-95%.
